According to ChEMBL document CHEMBL1201862, “PubChem BioAssay data set” (2004):
The source made the active and inactive calls.

Tests used:
[1] = inhibitors of firefly luciferase expression or activity, dose response, H4 neuroglioma cells, luminescence (AID 1990); format: functional, cell-based
[2] = Luminescence Cell-Based Dose Response HTS to Identify Inhibitors of 5'UTR Stem-Loop Driven Prion Protein mRNA Translation in H4 Neuroglioblastoma Cells. [Related pubchem assays: 1827 (Project Summary), 1813 (Primary HTS)]; format: functional
[3] = inhibitors of SNCA 5'UTR-driven reporter translation, confirmation, H4 neuroglioma cells, luminescence (AID 1988); format: functional, cell-based
[4] = microbe, parasite or virus in culture; format: functional; details: Mycobacterium tuberculosis
[5] = target: T1, Corticotropin-releasing factor receptor 2/Corticotropin-releasing factor-binding protein (Homo sapiens, UniProt P24387+Q13324); test: Dose Response confirmation of uHTS hits for small molecule antagonists of the CRF-binding protein and CRF-R2 receptor complex.; format: functional; details: read-out: IC50_Mean
T1 sequence (Q13324 whole entry): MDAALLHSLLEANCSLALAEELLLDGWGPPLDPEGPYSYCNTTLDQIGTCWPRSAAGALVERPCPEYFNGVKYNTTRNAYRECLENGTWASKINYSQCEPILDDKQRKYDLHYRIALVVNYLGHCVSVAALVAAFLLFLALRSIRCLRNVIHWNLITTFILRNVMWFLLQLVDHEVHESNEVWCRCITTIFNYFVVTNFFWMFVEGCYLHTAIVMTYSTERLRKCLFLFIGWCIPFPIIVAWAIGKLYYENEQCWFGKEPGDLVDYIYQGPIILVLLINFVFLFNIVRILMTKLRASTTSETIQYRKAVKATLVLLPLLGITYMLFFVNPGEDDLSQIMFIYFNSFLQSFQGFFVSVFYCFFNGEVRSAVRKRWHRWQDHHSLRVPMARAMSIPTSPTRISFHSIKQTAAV
T1 sequence (P24387 whole entry): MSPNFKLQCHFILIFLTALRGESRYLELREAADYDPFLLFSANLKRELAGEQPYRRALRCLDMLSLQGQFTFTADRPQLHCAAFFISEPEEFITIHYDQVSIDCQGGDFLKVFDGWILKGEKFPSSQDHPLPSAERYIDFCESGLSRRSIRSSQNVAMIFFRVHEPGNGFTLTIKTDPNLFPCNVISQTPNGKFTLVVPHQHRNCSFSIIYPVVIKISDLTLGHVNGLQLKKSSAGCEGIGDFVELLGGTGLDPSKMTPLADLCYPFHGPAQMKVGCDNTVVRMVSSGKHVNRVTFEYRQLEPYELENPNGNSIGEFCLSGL

[6] = target: T1, Corticotropin-releasing factor receptor 2/Corticotropin-releasing factor-binding protein; test: activators of CRF receptor 2 with binding protein – uHTS hits, confirmation (AID 602473); format: functional; details: read-out: EC50_Mean
[7] = tested on: Streptococcus sp. 'group A'; test: growth inhibition of control SK(-) GAS strain, dose response, counter-screen for streptokinase expression inhibitor project, luminescence, kanamycin, BacTiterGlo, confirmation (AID 1900); format: functional, organism-based
Streptococcus = test: Group A Streptococcus viability loss, dose response, counter-screen for streptokinase expression inhibitor project, luminescence, BacTiterGlo (AID 1915); format: functional, organism-based;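 also: potency for reduction of bacterial viability or growth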
H9c2 = test: cells; format: functional, cell-based; details: Rattus norvegicus, H9c2, Myocardium;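 also: confirmatory concentration-response retest of ultra-high-throughput screening hits for modulation of myocardial damage; cell death induced by hydrogen peroxide oxidative stress; compound pretreatment for 60 min then peroxide exposure for 2 h; potency is for protecting the cells against peroxide damage rather than for killing them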
Cytochrome P450 2D6 = Cytochrome P450 2D6 (Homo sapiens, UniProt P10635);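 also: CYP2D6 member of a cytochrome P450 panel assay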
Cytochrome P450 1A2 = target: T2, Cytochrome P450 1A2 (Homo sapiens, UniProt P05177);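 also: PubChem cytochrome P450 panel assay, CYP1A2 panel member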
T2 sequence (P05177 whole entry): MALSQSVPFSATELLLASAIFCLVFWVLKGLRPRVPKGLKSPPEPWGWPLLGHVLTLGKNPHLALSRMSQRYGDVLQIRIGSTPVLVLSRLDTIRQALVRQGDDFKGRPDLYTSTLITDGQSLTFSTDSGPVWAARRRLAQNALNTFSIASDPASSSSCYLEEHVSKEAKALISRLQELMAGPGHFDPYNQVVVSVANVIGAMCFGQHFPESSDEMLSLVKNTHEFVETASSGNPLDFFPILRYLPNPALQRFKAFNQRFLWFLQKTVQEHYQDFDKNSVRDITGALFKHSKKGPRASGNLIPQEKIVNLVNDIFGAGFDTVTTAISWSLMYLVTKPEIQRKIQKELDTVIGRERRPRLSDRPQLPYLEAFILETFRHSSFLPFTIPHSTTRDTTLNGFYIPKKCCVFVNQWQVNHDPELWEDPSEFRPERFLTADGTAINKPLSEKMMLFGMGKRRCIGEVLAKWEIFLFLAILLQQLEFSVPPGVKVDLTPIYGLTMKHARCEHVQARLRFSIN

Cytochrome P450 2C19 = Cytochrome P450 2C19 (Homo sapiens, UniProt P33261); test: Cytochrome panel assay with activity outcomes. Panel member name: p450-cyp2c19 Compounds with AC50 equal or less than 10 uM are considered active; format: functional; details: read-out: AC50
[8] = Luminescence Cell-Based Dose Response HTS to Identify Activators of Luciferase Translation or Activity in H4 […] Cells. [Related pubchem assays: 1829 (Project Summary), 1814 (Primary HTS)]; format: functional
Cytochrome P450 3A4 = Cytochrome P450 3A4 (Homo sapiens, UniProt P08684);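 also: CYP3A4 tested as one member of a cytochrome P450 panel screen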
Cytochrome P450 2C9 = Cytochrome P450 2C9 (Homo sapiens, UniProt P11712)
[9] = inhibitors of intracellular T. cruzi replication, confirmation, NIH3T3 host cells, beta-gal luminescence (AID 2044); format: functional, cell-based;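 also: intracellular parasites grown in NIH/3T3 mouse fibroblasts as host cells; luminescent beta-galactosidase reporter signal from transgenic T. cruzi replicating inside host cells; inhibitors lower the luminescence signal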
[10] = cytotoxicity toward NIH3T3 fibroblasts, dose response, counter-screen, cell-based, ATP luminescence, mouse fibroblasts (AID 2010); format: functional;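 also: cells exposed to compound for about 90 hours before reading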

Sequence of Cytochrome P450 2D6 (P10635 whole entry): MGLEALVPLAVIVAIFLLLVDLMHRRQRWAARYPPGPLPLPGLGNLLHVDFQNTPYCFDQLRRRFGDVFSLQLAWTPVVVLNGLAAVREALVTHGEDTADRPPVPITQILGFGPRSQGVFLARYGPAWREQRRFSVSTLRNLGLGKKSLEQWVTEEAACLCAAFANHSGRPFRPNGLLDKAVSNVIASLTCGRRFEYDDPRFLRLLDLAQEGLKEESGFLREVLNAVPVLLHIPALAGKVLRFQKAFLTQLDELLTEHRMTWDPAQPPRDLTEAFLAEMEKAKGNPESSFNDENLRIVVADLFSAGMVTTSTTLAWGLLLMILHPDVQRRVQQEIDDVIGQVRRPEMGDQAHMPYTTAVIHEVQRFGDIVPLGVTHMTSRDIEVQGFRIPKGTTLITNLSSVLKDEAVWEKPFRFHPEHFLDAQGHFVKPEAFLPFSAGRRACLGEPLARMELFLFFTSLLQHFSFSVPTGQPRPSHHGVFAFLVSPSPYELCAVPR
Sequence of Cytochrome P450 3A4 (P08684 whole entry): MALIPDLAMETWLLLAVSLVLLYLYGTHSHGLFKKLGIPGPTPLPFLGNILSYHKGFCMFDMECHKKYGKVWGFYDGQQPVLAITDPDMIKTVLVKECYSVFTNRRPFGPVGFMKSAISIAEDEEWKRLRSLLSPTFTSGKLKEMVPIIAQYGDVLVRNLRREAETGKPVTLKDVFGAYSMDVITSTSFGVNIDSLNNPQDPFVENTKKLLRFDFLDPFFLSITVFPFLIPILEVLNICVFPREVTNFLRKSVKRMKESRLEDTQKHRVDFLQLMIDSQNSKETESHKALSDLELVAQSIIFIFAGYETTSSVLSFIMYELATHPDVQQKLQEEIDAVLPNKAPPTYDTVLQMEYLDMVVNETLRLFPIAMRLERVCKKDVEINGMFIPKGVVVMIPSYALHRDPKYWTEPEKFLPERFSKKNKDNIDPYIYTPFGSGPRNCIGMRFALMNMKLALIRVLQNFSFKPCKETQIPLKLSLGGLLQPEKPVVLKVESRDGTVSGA
Sequence of Cytochrome P450 2C19 (P33261 whole entry): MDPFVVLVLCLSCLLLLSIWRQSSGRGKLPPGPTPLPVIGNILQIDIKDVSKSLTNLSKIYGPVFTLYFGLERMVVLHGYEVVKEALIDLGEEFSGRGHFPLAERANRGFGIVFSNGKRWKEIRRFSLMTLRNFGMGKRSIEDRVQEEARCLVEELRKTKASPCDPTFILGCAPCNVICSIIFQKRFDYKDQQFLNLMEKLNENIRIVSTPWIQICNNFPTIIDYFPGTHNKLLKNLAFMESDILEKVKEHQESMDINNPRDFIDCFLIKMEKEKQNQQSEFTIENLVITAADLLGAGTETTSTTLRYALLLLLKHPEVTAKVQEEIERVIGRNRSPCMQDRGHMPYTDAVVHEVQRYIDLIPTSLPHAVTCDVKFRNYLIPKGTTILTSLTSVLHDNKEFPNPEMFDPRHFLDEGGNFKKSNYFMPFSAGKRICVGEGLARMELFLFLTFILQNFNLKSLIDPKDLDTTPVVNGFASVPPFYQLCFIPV
Sequence of Cytochrome P450 2C9 (P11712 whole entry): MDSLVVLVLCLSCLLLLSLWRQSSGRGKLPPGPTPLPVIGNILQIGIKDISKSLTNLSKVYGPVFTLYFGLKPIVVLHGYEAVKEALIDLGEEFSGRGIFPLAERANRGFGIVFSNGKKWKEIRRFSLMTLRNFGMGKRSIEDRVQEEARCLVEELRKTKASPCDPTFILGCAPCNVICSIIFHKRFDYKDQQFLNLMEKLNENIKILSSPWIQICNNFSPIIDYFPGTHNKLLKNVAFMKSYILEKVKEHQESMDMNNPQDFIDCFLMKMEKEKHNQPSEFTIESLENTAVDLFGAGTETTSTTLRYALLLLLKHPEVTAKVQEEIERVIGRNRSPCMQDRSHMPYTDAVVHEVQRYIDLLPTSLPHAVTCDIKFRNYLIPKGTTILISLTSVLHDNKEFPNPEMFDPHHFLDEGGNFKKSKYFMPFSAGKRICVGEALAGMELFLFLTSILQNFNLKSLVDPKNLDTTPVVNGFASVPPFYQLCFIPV

O=C(C1CCN(c2nc(-c3ccccc3)nc3c2CCC3)CC1)N1CCCC1
EC50 [1]: > 120 µM (not active)
EC50 [2]: 24.7 µM (active)
EC50 [3]: 16.7 µM (active)

C/C(=N\Nc1ccc(S(=O)(=O)N2CCCCC2)cn1)c1cccc(Br)c1
CC50 [4]: > 40 µM (active)

Cc1[nH]c(=O)[nH]c(=O)c1S(=O)(=O)N1CCCC(C(=O)N2CCN(c3ccccc3Cl)CC2)C1 (centres undefined)
IC50 [5]: > 47.1 µM (inactive)
EC50 [6]: > 53 µM (inactive)

C/C(CC(=O)Nc1ccc(Cl)c(C(F)(F)F)c1)=N\NC(=O)c1ccccc1O
EC50 [7]: 2.77 µM (active)
EC50 (Streptococcus): 3.68 µM (active)

COc1cccc(C(=O)Nc2cc(C)c3c(=O)oc4ccccc4c3n2)c1
IC50 (H9c2): > 79 µM (inactive)

CC#CCCCC(=O)Nc1ccccc1C(=O)O
IC50 [5]: > 47.1 µM (inactive)
EC50 [6]: > 53 µM (inactive)

COc1cccc(Nc2nc3ccccc3n3nnnc23)c1
IC50 (H9c2): > 79 µM (inactive)

NC(=O)c1ccc(NCC2COc3ccccc3O2)c([N+](=O)[O-])c1 (centres undefined)
IC50 [5]: > 47.1 µM (inactive)
EC50 [6]: > 53 µM (inactive)

OC(c1ccccc1)(c1ccc(F)cc1)C(c1ccccc1)N1CCOCC1 (centres undefined)
AC50 (Cytochrome P450 2D6): 14.1 µM (inconclusive)

CCOc1ccc(NC(=O)Nc2cc(C)ccc2OC)cc1
IC50 [5]: > 47.1 µM (inactive)
EC50 [6]: > 53 µM (inactive)

Cc1ccc(NC(=O)COC(=O)CCC(=O)c2cccs2)c(Br)c1
IC50 [5]: > 47.1 µM (inactive)
EC50 [6]: > 53 µM (inactive)

COc1ccccc1-n1c(SCC(=O)Nc2ccccc2F)nc2nncc-2c1O
AC50 (Cytochrome P450 2D6): 8.91 µM (inconclusive)
AC50 (Cytochrome P450 1A2): 28.2 µM (inconclusive)

CC1CCc2cc(F)ccc2N1C(=O)CSc1n[nH]c2c3cc(F)ccc3nc-2n1 (centres undefined)
AC50 (Cytochrome P450 2C19): 0.562 µM (inconclusive)
AC50 (Cytochrome P450 2D6): 14.1 µM (inconclusive)

Cc1ccc(S(=O)(=O)N2CCN(C(=O)CCc3nc(O)c4ccccc4n3)CC2)c(C)c1
IC50 (H9c2): > 79 µM (inactive)

O=C(CSc1ccc(Cl)cc1)N1CCC(c2nc3ccccc3s2)CC1
CC50 [4]: 34.7 µM (active)

CCN(CC(=O)Nc1c(F)cccc1F)C(=O)c1ccc2c(=O)n3c(nc2c1)CCC3
IC50 [5]: > 47.1 µM (inactive)
EC50 [6]: > 53 µM (inactive)

CCn1nc(C(=O)NNC(=O)c2cc(Cl)ccc2OC)c2ccccc2c1=O
IC50 (H9c2): > 79 µM (inactive)

Cc1cc(C)n(C(=O)CNC(=O)c2ccccc2Br)n1
IC50 [5]: > 47.1 µM (inactive)
EC50 [6]: > 53 µM (inactive)

Fc1ccc(Nc2ccnc(-c3ccoc3)n2)cc1
AC50 (Cytochrome P450 2D6): 20 µM (inconclusive)

O=C(NC(=S)N1CCN(c2nc(-c3ccccc3)cs2)CC1)c1cncc(Br)c1
EC50 [7]: 3.04 µM (active)
EC50 (Streptococcus): 3.91 µM (active)

Cn1c(C(=O)NCCc2ccsc2)cc2c(=O)n(C)c3ccccc3c21
IC50 (H9c2): > 79 µM (inactive)

O=C(CN1CCCCC1)Nc1nc(-c2ccc(F)c(F)c2)cs1
IC50 (H9c2): > 79 µM (inactive)

Cc1ccccc1Cn1c(=O)sc2ccccc2c1=O
IC50 [5]: > 47.1 µM (inactive)
EC50 [6]: > 53 µM (inactive)

O=C(c1ccccc1)c1c[nH]c(C(=O)NCc2cccnc2)c1
AC50 (Cytochrome P450 2D6): 15.8 µM (inconclusive)

Cn1cccc1C(=O)N1CCC2(CC1)CN(Cc1cc(C(F)(F)F)cc(C(F)(F)F)c1)C2
AC50 (Cytochrome P450 2D6): 25.1 µM (inconclusive)
AC50 (Cytochrome P450 1A2): 10 µM (inconclusive)

CCOC(=O)C(Cc1ccc(NC(=O)/C(=C/c2ccc(OC(C)=O)cc2)NC(C)=O)cc1)N1C(=O)c2ccccc2C1=O (centres undefined)
IC50 (H9c2): > 79 µM (inactive)

O=C(CCCSc1nc(O)c2c3c(sc2n1)CCC3)NCCO
IC50 (H9c2): > 79 µM (inactive)

Cc1ccc2nc(N/N=C/c3ccccc3C#N)nc(-c3ccccc3)c2c1
CC50 [4]: 28.8 µM (active)

CCOC(=O)c1sc(NC(=O)C(C)(C)C)cc1C
EC50 [8]: 13 µM (active)

CCOC(=O)c1csc(Nc2nc3ccc(F)cc3s2)n1
EC50 [7]: 5.24 µM (active)
EC50 (Streptococcus): 11.4 µM (active)

C/C(CCN1CCCCc2nc(C)c(C)cc21)=N\OC[C@@H](O)COCc1ccco1
AC50 (Cytochrome P450 2D6): 7.94 µM (inconclusive)

O=C(Cc1ccccc1[N+](=O)[O-])NCCSCc1c(F)cccc1Cl
AC50 (Cytochrome P450 2D6): 2.82 µM (inconclusive)
AC50 (Cytochrome P450 1A2): 5.62 µM (inconclusive)

CC(NC(=O)Cc1ccc(F)cc1)c1ccccc1 (centres undefined)
AC50 (Cytochrome P450 2D6): 15.8 µM (inconclusive)
AC50 (Cytochrome P450 3A4): 25.1 µM (inconclusive)
AC50 (Cytochrome P450 2C9): 10 µM (inconclusive)

CC(=O)Nc1cccc(NC(=O)c2cc(-c3cccnc3)nc3ccc(Cl)cc23)c1
IC50 (H9c2): > 79 µM (inactive)

CN1CC[C@@]2(CCCN(C(=O)c3ccco3)C2)C1
AC50 (Cytochrome P450 2D6): 20 µM (inconclusive)
AC50 (Cytochrome P450 3A4): 20 µM (inconclusive)

O=C(Nc1cccc(O)c1)c1ccc(NC(=O)c2cccs2)cc1
IC50 [5]: > 47.1 µM (inactive)
EC50 [6]: > 53 µM (inactive)

CCOC(=O)Cc1csc(NC(=O)c2c(O)c3c(n(CC(C)C)c2=O)CCCC3)n1
CC50 [4]: > 40 µM (active)

Cn1cc(-c2nc3cnc(N4CCNCC4)nc3n(Cc3ccc(F)cc3)c2=O)c2ccccc21
AC50 (Cytochrome P450 2D6): 20 µM (inconclusive)
AC50 (Cytochrome P450 1A2): 20 µM (inconclusive)

Cc1ccc(NC(=O)CSC(C)C(=O)OCc2cc(=O)oc3cc(O)ccc23)cc1 (centres undefined)
IC50 (H9c2): > 79 µM (inactive)

Clc1nc2c(-c3ccccc3)nnn2c2ccccc12
EC50 [9]: 2.55 µM (active)
CC50 [4]: 27.3 µM (active)
EC50 [10]: > 60 µM (not active)

CCCCCn1nc(C(=O)OCC(=O)c2c(N)n(C)c(=O)n(C)c2=O)c2ccccc2c1=O
IC50 (H9c2): > 79 µM (inactive)

O=C(C[C@H]1C/C=C\CC[C@H](Cc2ccc(F)cc2)C(=O)O[C@@H](c2ccccc2)CNC1=O)N[C@H](CO)Cc1ccccc1
IC50 (H9c2): > 79 µM (inactive)

NC(=O)/C(=C\c1ccncc1)c1cccc2ccccc12
AC50 (Cytochrome P450 2D6): 2 µM (inconclusive)

O=C1CCc2cc(S(=O)(=O)N3CCC(C(=O)NC4CCCCCCC4)CC3)ccc2N1
IC50 [5]: > 47.1 µM (inactive)
EC50 [6]: 34 µM (active)
